The data set is described as follows: Solubility of buprenorphine FB in release media. Particulars: 48 hours. It counts as physicochemical. As for the experimental part: The solubility of buprenorphine FB was determined in PBS with 0.05% Tween 20 (PBST) and 0.5% w/v sodium dodecyl sulfate (SDS) in water. The solubility was determined by placing excess buprenorphine FB into the media mentioned above at 37° C. and shaking at 40 RPM for 48 hours. After 48 hours, a sample was taken and centrifuged at 15,000 RPM for 5 minutes. The supernatant was then collected and diluted with the same medium, and the concentration was determined using high-performance liquid chromatography.

Each structure is given as a SMILES string. In brackets after ≈: the same amount, converted by molar mass.

For the compound `CO[C@@]12CC[C@@]3(C[C@@H]1[C@](C)(O)C(C)(C)C)[C@H]1Cc4ccc(O)c5c4[C@@]3(CCN1CC1CC1)[C@H]2O5` [Buprenorphine FB, Buprenorphine free base], for the setting “0.5% w/v sodium dodecyl sulfate in water, 37° C.”, the “Solubility in 0.5% SDS” value turned out to be 0.336 mg/mL (≈ 718 µM). Moreover, the “Solubility in PBST” value (PBS with 0.05% Tween 20, 37° C.) is 0.0088 mg/mL (≈ 18.8 µM).

For the origin of these results see patent publication US20250319080A1, “BIO[…] FORMULATIONS AND METHODS OF USE AND MANUFACTURE THEREOF” (PURDUE RESEARCH FOUNDATION, priority 2022, published 2025).
